Reference: US12251382B2, “Substituted amino-pyrimidine compound for use in a method for treatment and prevention of multiple sclerosis” (Merck Patent GmbH, priority 2018, dated 2025)
Where a name gives a salt, the structure may show the parent alone.

Columns and labels:
[1] = test system: human patients suffering from relapsing multiple sclerosis (RMS); test: Phase II RMS study: qualified relapse assessment (ARR, relapse-free status); type: in vivo; conditions: open-label reference arm, 240 mg twice daily, Week 24
Procedure: (§1) The assessing Investigator and central MRI reader were treatment blinded.
Subjects were assessed for MS relapse at visits beginning at Week 4. Relapse was also assessed at any Unscheduled Visit for Neurological Worsening and Relapse Assessment. For subjects in the OLE Period, MS relapse was assessed at all visits. A qualifying relapse was defined as new, worsening or recurrent neurological symptoms attributed to MS that last for at least 24 hours without fever or infection, or adverse reaction to prescribed medication, preceded by a stable or improving neurological status of at least 30 days. The relapse must have been accompanied by new clinical signs (i.e., changes in the neurological examination or an increase in EDSS score).
The protocol specified that all cases of potential relapse were to be objectively confirmed by the Investigator regardless of whether they were identified during a scheduled or unscheduled visit. Any assessments needed to confirm the relapse were to be performed, and details of the relapse were to be documented within the relevant section(s) of the eCRF.
Additional Secondary Endpoints
Analysis of secondary endpoints was based on the mITT analysis set. […] Descriptive statistics for ARR were calculated for each treatment group as the total number of qualified relapses divided by the number of subject-years of observation.
(§2) Primary and secondary efficacy endpoints were analysed based on the modified intention-to-treat (mITT) analysis set, consisting of all randomized patients with at least one available baseline and one post-baseline MRI assessment. […] For each endpoint, rate ratio (RR; null-hypothesis RR=1.0) adjusted for baseline disease activity was reported together with associated 95% CI and p-value. The T2 lesion endpoint was analysed similarly. Dose-response relationships between evobrutinib treatment dose and primary and key secondary endpoints were assessed for linear and monotonic trend. The analysis of CFB in cube root of volume of T2 lesions at Week 24 was based on a mixed-effect model for repeated measures, with fixed effects for treatment, week of visit, and treatment-by-week interaction, random effect for subject, and adjustment for baseline cube root of lesion volume. CFB in SF-36 score at Week 24 was analysed similarly. Descriptive statistics were used to further describe the study outcomes.

[2] = test system: human patients suffering from relapsing multiple sclerosis (RMS); test: Phase II RMS study: HRQoL SF-36 Physical Component Summary score; type: in vivo; conditions: open-label reference arm, 240 mg twice daily
Procedure: Analysis of Primary Endpoint
as §2

[3] = Phase II RMS study: safety (adverse events, laboratory) over 24 weeks; type: in vivo; conditions: 240 mg twice daily, 24 weeks
Procedure: as §1
Safety profile of the IMP was assessed through the recording, reporting and analysis of baseline medical conditions; AEs; physical examination findings including vital signs, ECGs, and laboratory tests (including Ig and subclass concentration and B, NK, and T cell counts). Comprehensive assessment of any apparent toxicity experienced by each subject was performed from the time of giving informed consent and throughout the trial. The Investigator was to report any AEs, whether observed by the Investigator or reported by the subject.
Adverse Event: An AE was any untoward medical occurrence in a subject or clinical investigation subject administered a pharmaceutical product, regardless of causal relationship with this treatment. An AE could therefore be any unfavorable and unintended sign (including an abnormal laboratory finding), symptom, or disease temporally associated with the use of a medicinal product, whether or not considered related to the medicinal product.
The Investigator was required to grade the severity or toxicity of each AE. Investigators referenced the National Cancer Institute-Common Terminology Criteria for AEs (NCI-CTCAE), Version 4.03 (publication date: 14 Jun. 2010) a descriptive terminology provided in the Manual of Procedures that can be used for AE reporting.
A general grading (severity/intensity; hereafter referred to as severity) scale was provided at the beginning of the above referenced document, and specific event grades were also provided. Only if a particular AE's severity was not specifically graded by the guidance document, then the Investigator was to use the general NCI-CTCAE definitions of Grade 1 through Grade 5 following his or her best medical judgment. The 5 general grades are: • Grade 1 or Mild • Grade 2 or Moderate • Grade 3 or Severe • Grade 4 or Life-threatening • Grade 5 or Death.
Serious Adverse Events: An SAE is any untoward medical occurrence that at any dose: • Results in death. • Is life-threatening. (Note: The term “life-threatening” refers to an event in which the subject is at risk of death at the time of the event, not an event that hypothetically might have caused death if it was more severe) • Requires inpatient hospitalization or prolongs an existing hospitalization, except in the case of hospitalizations due to protocol-defined relapses. • Results in persistent or significant disability or incapacity. • Is a congenital anomaly or birth defect. • Is otherwise considered to be medically important.

[4] = test system: human patients suffering from relapsing multiple sclerosis (RMS); test: Phase II RMS study: brain MRI (Gd+ T1 lesions, T2 lesions); type: in vivo; design: key to Gd+ T1 lesion rate (subject level), Median / Gd+ T1 Lesion rate, adjusted (negative binomial model): number of Gd+ T1 lesions per scan
Procedure: as §1
The protocol specified that subjects self-administered the IMP at a set time each day (every 12 hours ±2 hours). Subjects were to take their daily dose more than 1 hour prior to a meal or snack and more than 2 hours after a meal or snack. Clear fluids were allowed at any time. On trial visit days, the IMP was to be administered during the trial visit after the scheduled trial visit procedures (other than post-treatment PK/PD sampling) are completed.
Stratification occurred by region (USA or Western Europe, Eastern Europe and BTKO capable, Eastern Europe and not BTKO capable, and RoW). For the first 7 days, Tecfidera was administered orally at 120 mg twice daily. Following this and for the duration of treatment, Tecfidera was administered orally at 240 mg twice daily.
The protocol specified that MRI scans were to be performed at Screening, at 4-week intervals from Week 12 to 24, and at the End of Treatment Visit at Week 48 (including for subjects receiving Tecfidera who choose to enter the OLE Period). […] If a subject discontinued the study more than 4 weeks after his or her most recent MRI, the protocol specified that an MRI may be obtained at the 4-week Safety Follow-up Visit. The Screening MRI scan was to be acquired before randomization and dosing to allow for the readouts to be read by the central MRI reader (approximately 7 days).
Gadolinium was used to enhance T1-weighted lesions and to optimize clarity and accuracy of reporting. As gadolinium is excreted renally, subjects with acute renal insufficiency (eGFR <45 mL/min/1.73 m^2) will be excluded from the trial.
The protocol specified that brain MRI scans were performed according to a standardized imaging protocol before and after the administration of single-dose gadolinium. Images were assessed and reported by an independent, blinded, centralized MRI reading service, provided by NeuroRx Research. The assessment was performed in the absence of clinical information. Further details, including the scans required and the optimal MRI workflow, were provided in a separate Imaging Manual provided to each trial site by NeuroRx Research. All MRI images were reviewed and reported locally by a radiologist for safety. The local report was to contain only non-MS pathology and was to be provided to the Treating Investigator.
The primary endpoint was the total number of gadolinium-enhancing T1 lesions at Week 12, 16, 20, and 24. The primary analysis was a comparison of each evobrutinib dose arm versus placebo based on this endpoint, with a supportive test for dose-response. Secondary Endpoints
Other covariates were permitted to be considered. […] Descriptive statistics for the total number of Gd+ T1 lesions, at Week 12, 16, 20, and 24, are provided for each treatment group.
Estimation of mean per-scan number of Gd+ T1 lesions at Weeks 12, 16, 20, and 24, for each treatment group, was based on the NB model. In the analysis of each secondary endpoint, other covariates were permitted to be included in the model.
as §2, with “Descriptive statistics were used to further describe the study outcomes.” left out

[5] = therapeutic or supratherapeutic doses, thorough QT studies; cited from earlier work
[6] = open-label reference arm, 240 mg twice daily

Row | SMILES | Proportion of patients who qualified as relapse-free [1] | Unadjusted ARR [1] | Change in SF-36 PCS score from baseline to week 24, Mean ± SD [2] | Change in SF-36 PCS score from baseline to week 24, Median [2] | Change in SF-36 PCS score from baseline to week 24, Mean ± SD ([2]; listed as dimethyl fumarate) | TEAE: Infections and infestations [3] | TEAE: Urinary tract infection [3] | Total Gd+ T1 lesions over 4 scans in an outlier patient ([4]; one patient of the open-label reference arm) | Change in volume of T2 lesions from baseline to week 24, Mean ± SD [4, 6] | Change in volume of T2 lesions from baseline to week 24, Median [4, 6] | Gd+ T1 lesion rate (subject level), Median [4, 6] | Gd+ T1 lesion rate (subject level; count per scan, weeks 12-24), Mean ± SD [4, 6] | Total Number of New or Enlarging T2 Lesions at Week 24, Mean ± SD [4, 6] | Total number of Gd+ T1 lesions at Weeks 12, 16, 20, 24, Mean ± SD [4, 6] | Total number of Gd+ T1 lesions at Weeks 12, 16, 20, 24, Median (min-max) [4, 6] | New or enlarging T2 lesion rate (subject level), Mean ± SD ([4]; open-label reference arm, 240 mg twice daily, Weeks 12-24) | Total number of Gd+ T1 lesions at Weeks 12, 16, 20, 24, Mean ± SD ([4]; open-label reference arm, 240 mg twice daily, listed as dimethyl fumarate) | Prolongation of the QTc interval [5]
1 | COC(=O)/C=C/C(=O)OC [Dimethyl fumarate, dimethyl fumarate, reference compound] | 89% | 0.20 | 1.6 ± 5.17 | 1.7 | 1.6±5.17 | 7 (13.0) n (%) | 0 (0.0) n (%) | 230 | 0.46 ± 2.97 cc | −0.02 cc | 0.0 | 1.45 ± 7.29 | 5.35 ± 16.67 | 5.78 ± 29.17 | 0 (0-213) | 1.54 ± 5.46 | 5.78 (±29.17) | 
2 | CC#CC(=O)N1CCC[C@H]1c1nc(-c2ccc(C(=O)Nc3ccccn3)cc2)c2c(N)nccn12 [acalabrutinib] |  |  |  |  |  |  |  |  |  |  |  |  |  |  |  |  |  | Neither ibrutinib nor acalabrutinib have been associated with clinically relevant prolongation of the QTc interval
